Tests used:
[1] = system: human prostate cancer cell line LNCaP; assay: Cytostatic activity in vitro, prostate cancer LNCaP; type: cell-based; conditions: 72 h continuous exposure
Source text: (§1) Table 5 presents activity in vitro of anthrapiridazone derivatives towards three cell lines of prostate cancer, naturally multidrug resistant, in comparison with references doxorubicin, mitoxantrone and taxol.

[2] = system: human promyelocytic leukemia cell line HL-60; assay: Cytostatic activity in vitro, HL-60 sensitive line; type: cell-based; conditions: 50% inhibition of cell growth after 72 h continuous exposure; read-out: HL60 IC50
Source text: (§2) Tables 3 and 4 show cytostatic activity in vitro of 2,6-disubstituted and 2- or 6-monosubstituted (Tab.3), and of 2,5-disubstituted-(Tab.-4) tetracyclic anthrapyridazone derivatives using leukemia cell line HL-60 and the resistant cell sublines with resistance induced by vincristine (MDR-1) or doxorubicin (MRP). Activity of compounds is differentiated depending on their structure, but in all cases resistance indexes are more advantageous in comparison with reference compounds: doxorubicin and mitoxantrone.

[3] = system: HL60/DX; assay: Cytostatic activity in vitro, doxorubicin-induced resistant subline (MRP); type: cell-based, human; conditions: for IC50: 72 h continuous exposure; for RI resistance index HL60/DX: IC50(resistant cells)/IC50(sensitive cells), HL60/DX vs HL60, 72 h
Source text: as §2

[4] = system: CT-DNA; assay: Interaction with isolated CT-DNA, fluorescence competition with ethidium bromide; type: binding; conditions: for IC50: 50% decrease in fluorescence intensity of DNA-bromide ethydine complex; for Kapp relative constant of DNA-compound bonding: Kapp = (1.26/C50) × KEtBr, KEtBr = 10^7M
Source text: It could be supposed that this property explains cytostatic activity of compounds. In Table 9 there are presented quantitative data on the affinity to DNA of tested compounds using the fluorescence method and competitive affinity to DNA of bromine ethydine and tested compounds.

[5] = system: human prostate cancer cell line DU145; assay: Cytostatic activity in vitro, prostate cancer DU145; type: cell-based; conditions: 72 h continuous exposure
Source text: as §1

[6] = system: human prostate cancer cell line PC3; assay: Cytostatic activity in vitro, prostate cancer PC3; type: cell-based; conditions: 72 h continuous exposure
Source text: as §1

[7] = system: HL60/VINC; assay: Cytostatic activity in vitro, vincristine-induced resistant subline (MDR-1); type: cell-based, human; conditions: for IC50: 72 h continuous exposure; for RI resistance index HL60/VINC: IC50(resistant cells)/IC50(sensitive cells), HL60/VINC vs HL60, 72 h
Source text: as §2

Compound	IC50 [1] [nM]	IC50 [2] [nM]	IC50 [3] [nM]	IC50 [4] [nM]	IC50 [5] [nM]	IC50 [6] [nM]	IC50 [7] [nM]	RI resistance index HL60/DX [3]	Kapp relative constant of DNA-compound bonding [4] [M⁻¹]	RI resistance index HL60/VINC [7]
Nc1ccc2c(=O)n(CCN3CCOCC3)nc3c2c1C(=O)c1ccccc1-3 [PDZ-4, 2-(2-Morpholinethyl)-6-amino-2,7-dihydro-3H-dibenzo[de,h]cynnoline-3,7-dione]	2790 ± 276	2080 ± 169	4720 ± 389	16800 ± 410	3280 ± 355	5110 ± 206	2550 ± 286	2.3	700000	1.2
CN(C)CCn1nc2c3c(c(NCc4ccccc4)ccc3c1=O)C(=O)c1ccccc1-2 [PDZ-8, 2-[2-(Dimethylamino)ethyl]-6-(N-benzylamino)-2,7-dihydro-3H-dibenzo[de,h]cynnoline-3,7-dione]	683 ± 17	719 ± 27	4800 ± 1330	7290 ± 280	1220 ± 142	1710 ± 125	850 ± 93	6.7	1.7e+06	1.2
CN(C)CCn1nc2c3c(cccc3c1=O)C(=O)c1ccccc1-2 [PDZ-15, 2-[2-(Dimethylamino)ethyl]-2,7-dihydro-3H-dibenzo[de,h]cynnoline-3,7-dione]	323 ± 34	213 ± 64	3060 ± 992	3080 ± 190	462 ± 52	963 ± 171	489 ± 68	14.4	4.1e+06	2.3

The next lines start with results.

IC50 [1] [nM]	IC50 [2] [nM]	IC50 [3] [nM]	IC50 [4] [nM]	IC50 [5] [nM]	IC50 [6] [nM]	IC50 [7] [nM]	Compound	RI resistance index HL60/DX [3]	Kapp relative constant of DNA-compound bonding [4] [M⁻¹]	RI resistance index HL60/VINC [7]
237 ± 45	113 ± 7	2680 ± 768	2640 ± 290	169 ± 47	947 ± 37	947 ± 111	CN(C)CCn1nc2c3c(c(NCC(=O)N(C)C)ccc3c1=O)C(=O)c1ccccc1-2 [PDZ-12, 2-[2-(Dimethylamino)ethyl]-6-[(N,N-dimethylacetamido)amino]-2,7-dihydro-3H-dibenzo[de,h]cynnoline-3,7-dione]	23.7	4.8e+06	8.4
31.4 ± 4.6	8.6 ± 0.9	2600 ± 436	220 ± 60	47.3 ± 11.5	245 ± 36	82.2 ± 6.1	CN(C)CCn1nc2c3c(c(NCCCN)ccc3c1=O)C(=O)c1ccccc1-2 [PDZ-20, 2-[2-(Dimethylamino)ethyl]-6-[(3-aminopropyl)amino]-2,7-dihydro-3H-dibenzo [de,h]cynnoline-3,7-dione]	302.2	5.79e+07	9.6
11 ± 1.4	2.2 ± 0.1	364 ± 36	280 ± 50	22.6 ± 5.2	75.2 ± 16.2	8.7 ± 0.4	CCNCCNc1ccc2c(=O)n(CCN(C)C)nc3c2c1C(=O)c1ccccc1-3 [Compound C-180, 2-[2-(Dimethylamino)ethyl]-6-{[2-(ethylamino)ethyl]amino}-2,7-dihydro-3H-dibenzo[de,h]cynnoline-3,7dione]	165.5	4.53e+07	4.0
